In US10485766B2, “Drug delivery system and method for the treatment of neuro-degenerative disease” (Aphios Corporation, priority 2011, dated 2019):

Experiments:
[1] = Concentrations of Bryostatin in different solvents (normal phase HPLC); assay type: physicochemical; settings: for Concentration: theoretical 2.5 mg/100 mL
Protocol: Isopropyl alcohol, Extra Virgin olive oil, sesame oil, and vegetable oil were all used as solvents.
Thirty microliters of the stock solution were placed in each of 4 clean, dry HPLC vials. The ethanol was allowed to evaporate, leaving 25 micrograms in the vial. Then, 1.0 mL of the solvent was placed in the vial and vortexed to ensure proper mixing. These samples were then injected on a normal phase HPLC system, with a gradient of 10%-70% isopropyl alcohol in hexane as the mobile phase (specifically developed for this experiment).
The concentration of each vial theoretically should be 2.5 mg/100 mL.
The reason for the higher concentrations than the standard (isopropyl alcohol) is due to the baseline. While attempting a baseline subtraction for each oil, there was negative absorbance so the blank IPA sample was subtracted from each sample's baseline. While this incorporates a little more area for integration, the amount of Bryostatin in the oil was quantifiable.

[2] = system: Mouse strain B6C3-Tg carrying mutant sweAPP and PS1 genes; experiment: Water maze studies; assay type: in vivo; settings: 5 micrograms/mouse on alternative days orally in oil formulation; sweAPP/PS1 mice, 5-6 months of age; versus control animals
Description: Mouse strain B6C3-Tg carrying mutant Swedish Amyloid precursor protein (sweAPP) and PS1 (presenilin-1) genes associated with early onset Alzheimer's disease were subjected to water maze tests at 5-6 months of age.

[3] = target: T1, protein kinase C (PKC) isoform alpha (Homo sapiens, UniProt P17252); experiment: PKC alpha activation (membrane translocation) in SH-SY5Y cells; assay type: cell-based; settings: as nanospheres; SH-SY5Y neuroblastoma cell line
T1 construct: (measured by membrane translocation) in the SH-SY5Y neuroblastoma cell line; endogenous in cells; host or cells: SH-SY5Y neuroblastoma cell line

[4] = system: alpha-secretase processing of amyloid precursor protein (APP); experiment: alpha-secretase processing of APP to s-APP alpha in SH-SY5Y neuroblastoma cell line; assay type: cell-based; settings: as nanospheres
Description: (§1) These events are well-described cell and pharmacological events associated with prevention of beta-secretase mediated formation of beta-amyloid, the presumptive cause of dementia in human Alzheimer's disease and in the sweAPP/PS1 mouse model of Alzheimer's disease.

[5] = target: T2, protein kinase C (PKC) isoform epsilon (Homo sapiens, UniProt Q02156); experiment: PKC epsilon activation (membrane translocation) in SH-SY5Y cells; assay type: cell-based; settings: as nanospheres; SH-SY5Y neuroblastoma cell line
T2 construct: (measured by membrane translocation) in the SH-SY5Y neuroblastoma cell line; endogenous in cells; host or cells: SH-SY5Y neuroblastoma cell line
T2 sequence (Q02156 1-737): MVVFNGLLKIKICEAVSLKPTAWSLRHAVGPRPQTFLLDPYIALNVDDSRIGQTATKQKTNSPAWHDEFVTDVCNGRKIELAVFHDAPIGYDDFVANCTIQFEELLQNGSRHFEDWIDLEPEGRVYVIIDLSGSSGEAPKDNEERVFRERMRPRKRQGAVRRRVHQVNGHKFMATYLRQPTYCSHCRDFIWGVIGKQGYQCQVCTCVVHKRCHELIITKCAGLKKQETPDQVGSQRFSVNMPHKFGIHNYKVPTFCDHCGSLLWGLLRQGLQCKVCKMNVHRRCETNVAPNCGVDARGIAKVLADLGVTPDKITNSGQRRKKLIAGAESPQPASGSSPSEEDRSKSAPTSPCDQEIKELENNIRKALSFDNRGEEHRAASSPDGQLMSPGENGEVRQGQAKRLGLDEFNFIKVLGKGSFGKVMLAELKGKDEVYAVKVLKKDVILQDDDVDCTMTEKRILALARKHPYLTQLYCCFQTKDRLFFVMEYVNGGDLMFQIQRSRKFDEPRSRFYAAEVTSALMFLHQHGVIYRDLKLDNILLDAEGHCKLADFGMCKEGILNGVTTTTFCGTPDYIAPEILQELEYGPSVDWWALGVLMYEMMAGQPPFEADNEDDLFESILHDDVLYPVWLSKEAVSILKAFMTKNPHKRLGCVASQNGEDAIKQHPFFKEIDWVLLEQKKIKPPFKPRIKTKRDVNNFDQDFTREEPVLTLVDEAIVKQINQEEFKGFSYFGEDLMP
Description: as §1

For `CCC/C=C/C=C/C(=O)O[C@H]1/C(=C/C(=O)OC)C[C@H]2C[C@H]([C@@H](C)O)OC(=O)C[C@H](O)C[C@@H]3C[C@H](OC(C)=O)C(C)(C)[C@](O)(C[C@@H]4C/C(=C/C(=O)OC)C[C@H](/C=C/C(C)(C)[C@]1(O)O2)O4)O3` [Bryostatin-1], the Concentration ([1]; Solvent Extra Virgin Olive Oil) was 2.9945 mg/100 mL, the Concentration ([1]; Solvent Extra Virgin olive with mixed natural tocopherol antioxidants, lecithin and medium chain triglyceride emulsifiers) was 2.4431 mg/100 mL and the Concentration ([1]; Solvent Isopropyl Alcohol (standard)) was 2.6035 mg/100 mL. The Concentration ([1]; Solvent Vegetable Oil) was 2.5475 mg/100 mL, the solubility in oils ([1]; different types of oil) was “soluble” and the “protection against memory loss in water maze” value [2] was “significant protection”. The “activation of PKC alpha (membrane translocation)” value [3] was “activate”, the “alpha-secretase processing of APP to s-APP alpha” value [4] was “induce alpha-secretase processing of amyloid precursor protein (APP) to s-APP alpha” and the “activation of PKC epsilon (membrane translocation)” value [5] was “activate”.
